# In ChEMBL document CHEMBL1125968, “5-HT2 antagonist activity of 3-aminomethyltetralones” (Bioorg Med Chem Lett, 1991):
# How the values were obtained:
# [1] = species: Rattus norvegicus; experiment: Tested for the antagonistic activity against serotonin-induced contractions in rat aorta ring strip of endothelium; assay type: functional, organism-based; conditions: read-out: pA2 (converted)
# [2] = biological target: Serotonin 2 (5-HT2) receptor (Rattus norvegicus, UniProt P30994+P08909+P14842); experiment: Tested for the binding affinity towards 5-HT2 receptor measured by [3H]ketanserin binding to frontal cerebral cortex membranes of rat; assay type: tissue-based, Membrane
Log Ki [2],Compound,Kb [1] [µM]
,O=C1CC(CN2CCC(C(=O)c3ccc(F)cc3)CC2)Cc2ccccc21 (stereo unspecified),0.0138
-7.29,O=C(CCCN1CCN(CC2CC(=O)c3ccc(F)cc3C2)CC1)c1ccc(F)cc1 (stereo unspecified),0.0562
-7.25,O=C(CCCN1CCN(CC2CC(=O)c3ccccc3C2)CC1)c1ccc(F)cc1 (stereo unspecified),
-6.48,COc1ccccc1N1CCN(CC2CC(=O)c3ccccc3C2)CC1 (stereo unspecified),0.513
